These are literature values, as cited in patent US20070281997A1, “TREATMENT OF HOT FLASHES USING MUSCARINIC RECEPTOR ANTAGONISTS” (priority 2006, published 2007).

Structures are written as SMILES.

This data set has as its system hot flashes. The note with it: men receiving androgen deprivation therapy; previous reports, pilot studies.
Turning to `CC(=O)[C@@]1(O)CC[C@H]2[C@@H]3C=C(C)C4=CC(=O)CC[C@]4(C)[C@H]3CC[C@@]21C` [megasterol], the “efficacy to reduce hot flashes” value was “efficacious”.

For `Fc1ccc([C@@H]2CCNC[C@H]2COc2ccc3c(c2)OCO3)cc1` [paroxetine], the “efficacy to reduce hot flashes” value is given as “shown efficacy”. As for `COc1ccc(C(CN(C)C)C2(O)CCCCC2)cc1` (stereo not drawn) [venlafaxine], the “efficacy to reduce hot flashes” value is reported as “shown efficacy”.
